# From the NIST ThermoML archive (doi:10.1016/j.tca.2016.03.002)
# ± gives the expanded uncertainty stated by the source.
# Tests used:
# [1] = relative permittivity at various frequencies (dimensionless); xn = mol fraction of the nth substance listed; details: 100 kPa, Liquid, Frequency=30 MHz, Parallel plate capacitor
# [2] = xn = mol fraction of the nth substance listed; details: 100 kPa, Liquid; for viscosity: Capillary tube (Ostwald / Ubbelohde) method; for mass density: Vibrating tube method
compound,measurement,setting,value
NC1CCCCC1 [cyclohexylamine] + CO,relative permittivity,"[1]; 293.15 K, x2 = 0",4.65 ± 0.09
same,relative permittivity,"[1]; 293.15 K, x2 = 0.0702",5.34 ± 0.11
same,relative permittivity,"[1]; 293.15 K, x2 = 0.1177",5.88 ± 0.12
same,relative permittivity,"[1]; 293.15 K, x2 = 0.2006",7.01 ± 0.14
same,relative permittivity,"[1]; 293.15 K, x2 = 0.3049",8.78 ± 0.18
same,relative permittivity,"[1]; 293.15 K, x2 = 0.4041",10.87 ± 0.22
same,relative permittivity,"[1]; 293.15 K, x2 = 0.4986",13.26 ± 0.27
same,relative permittivity,"[1]; 293.15 K, x2 = 0.5392",14.55 ± 0.3
same,relative permittivity,"[1]; 293.15 K, x2 = 0.597",16.28 ± 0.33
same,relative permittivity,"[1]; 293.15 K, x2 = 0.6609",18.6 ± 0.38
same,relative permittivity,"[1]; 293.15 K, x2 = 0.6986",19.95 ± 0.4
same,relative permittivity,"[1]; 293.15 K, x2 = 0.746",21.72 ± 0.44
same,relative permittivity,"[1]; 293.15 K, x2 = 0.7997",23.89 ± 0.48
same,relative permittivity,"[1]; 293.15 K, x2 = 0.8572",26.33 ± 0.53
same,relative permittivity,"[1]; 293.15 K, x2 = 0.8985",28.32 ± 0.57
same,relative permittivity,"[1]; 293.15 K, x2 = 0.949",30.74 ± 0.62
same,relative permittivity,"[1]; 298.15 K, x2 = 0",4.56 ± 0.09
same,relative permittivity,"[1]; 298.15 K, x2 = 0.0702",5.23 ± 0.11
same,relative permittivity,"[1]; 298.15 K, x2 = 0.1177",5.75 ± 0.12
same,relative permittivity,"[1]; 298.15 K, x2 = 0.2006",6.84 ± 0.14
same,relative permittivity,"[1]; 298.15 K, x2 = 0.3049",8.55 ± 0.17
same,relative permittivity,"[1]; 298.15 K, x2 = 0.4041",10.58 ± 0.21
same,relative permittivity,"[1]; 298.15 K, x2 = 0.4986",12.88 ± 0.26
same,relative permittivity,"[1]; 298.15 K, x2 = 0.5392",14.1 ± 0.29
same,relative permittivity,"[1]; 298.15 K, x2 = 0.597",15.73 ± 0.32
same,relative permittivity,"[1]; 298.15 K, x2 = 0.6609",18.05 ± 0.37
same,relative permittivity,"[1]; 298.15 K, x2 = 0.6986",19.34 ± 0.39
same,relative permittivity,"[1]; 298.15 K, x2 = 0.746",21.14 ± 0.43
same,relative permittivity,"[1]; 298.15 K, x2 = 0.7997",23.16 ± 0.47
same,relative permittivity,"[1]; 298.15 K, x2 = 0.8572",25.55 ± 0.52
same,relative permittivity,"[1]; 298.15 K, x2 = 0.8985",27.5 ± 0.56
same,relative permittivity,"[1]; 298.15 K, x2 = 0.949",29.87 ± 0.6
same,relative permittivity,"[1]; 303.15 K, x2 = 0",4.47 ± 0.09
same,relative permittivity,"[1]; 303.15 K, x2 = 0.0702",5.13 ± 0.1
same,relative permittivity,"[1]; 303.15 K, x2 = 0.1177",5.63 ± 0.11
same,relative permittivity,"[1]; 303.15 K, x2 = 0.2006",6.68 ± 0.14
same,relative permittivity,"[1]; 303.15 K, x2 = 0.3049",8.32 ± 0.17
same,relative permittivity,"[1]; 303.15 K, x2 = 0.4041",10.29 ± 0.21
same,relative permittivity,"[1]; 303.15 K, x2 = 0.4986",12.47 ± 0.25
same,relative permittivity,"[1]; 303.15 K, x2 = 0.5392",13.66 ± 0.28
same,relative permittivity,"[1]; 303.15 K, x2 = 0.597",15.28 ± 0.31
same,relative permittivity,"[1]; 303.15 K, x2 = 0.6609",17.5 ± 0.35
same,relative permittivity,"[1]; 303.15 K, x2 = 0.6986",18.73 ± 0.38
same,relative permittivity,"[1]; 303.15 K, x2 = 0.746",20.47 ± 0.41
same,relative permittivity,"[1]; 303.15 K, x2 = 0.7997",22.46 ± 0.45
same,relative permittivity,"[1]; 303.15 K, x2 = 0.8535",24.61 ± 0.5
same,relative permittivity,"[1]; 303.15 K, x2 = 0.8985",26.7 ± 0.54
same,relative permittivity,"[1]; 303.15 K, x2 = 0.949",28.96 ± 0.58
same,viscosity,"[2]; 293.15 K, x2 = 0",2.142 ± 0.046 mPa·s
same,viscosity,"[2]; 293.15 K, x2 = 0.0666",2.16 ± 0.05 mPa·s
same,viscosity,"[2]; 293.15 K, x2 = 0.1108",2.17 ± 0.05 mPa·s
same,viscosity,"[2]; 293.15 K, x2 = 0.2089",2.18 ± 0.05 mPa·s
same,viscosity,"[2]; 293.15 K, x2 = 0.3043",2.19 ± 0.05 mPa·s
same,viscosity,"[2]; 293.15 K, x2 = 0.4097",2.16 ± 0.05 mPa·s
same,viscosity,"[2]; 293.15 K, x2 = 0.4479",2.13 ± 0.04 mPa·s
same,viscosity,"[2]; 293.15 K, x2 = 0.493",2.07 ± 0.04 mPa·s
same,viscosity,"[2]; 293.15 K, x2 = 0.5478",1.99 ± 0.04 mPa·s
same,viscosity,"[2]; 293.15 K, x2 = 0.5961",1.89 ± 0.04 mPa·s
same,viscosity,"[2]; 293.15 K, x2 = 0.659",1.7 ± 0.04 mPa·s
same,viscosity,"[2]; 293.15 K, x2 = 0.7014",1.56 ± 0.03 mPa·s
same,viscosity,"[2]; 293.15 K, x2 = 0.798",1.22 ± 0.03 mPa·s
same,viscosity,"[2]; 293.15 K, x2 = 0.8992",0.89 ± 0.02 mPa·s
same,viscosity,"[2]; 293.15 K, x2 = 0.9503",0.72 ± 0.02 mPa·s
same,mass density,"[2]; 293.15 K, x2 = 0",866.86 ± 2.1 kg/m3
same,mass density,"[2]; 293.15 K, x2 = 0.0666",867.932 ± 2.1 kg/m3
same,mass density,"[2]; 293.15 K, x2 = 0.1108",868.284 ± 2.1 kg/m3
same,mass density,"[2]; 293.15 K, x2 = 0.2089",869.337 ± 2.1 kg/m3
same,mass density,"[2]; 293.15 K, x2 = 0.3043",869.454 ± 2.1 kg/m3
same,mass density,"[2]; 293.15 K, x2 = 0.4097",868.83 ± 2.1 kg/m3
same,mass density,"[2]; 293.15 K, x2 = 0.4479",868.248 ± 2.1 kg/m3
same,mass density,"[2]; 293.15 K, x2 = 0.493",867.202 ± 2.1 kg/m3
same,mass density,"[2]; 293.15 K, x2 = 0.5478",865.137 ± 2.1 kg/m3
same,mass density,"[2]; 293.15 K, x2 = 0.5961",862.688 ± 2.1 kg/m3
same,mass density,"[2]; 293.15 K, x2 = 0.659",858.061 ± 2.1 kg/m3
same,mass density,"[2]; 293.15 K, x2 = 0.7014",853.915 ± 2.1 kg/m3
same,mass density,"[2]; 293.15 K, x2 = 0.798",841.114 ± 2 kg/m3
same,mass density,"[2]; 293.15 K, x2 = 0.8992",820.891 ± 2 kg/m3
same,mass density,"[2]; 293.15 K, x2 = 0.9503",807.371 ± 2 kg/m3
same,viscosity,"[2]; 298.15 K, x2 = 0",1.908 ± 0.041 mPa·s
same,viscosity,"[2]; 298.15 K, x2 = 0.0666",1.92 ± 0.04 mPa·s
same,viscosity,"[2]; 298.15 K, x2 = 0.1108",1.93 ± 0.04 mPa·s
same,viscosity,"[2]; 298.15 K, x2 = 0.2089",1.94 ± 0.04 mPa·s
same,viscosity,"[2]; 298.15 K, x2 = 0.3043",1.94 ± 0.04 mPa·s
same,viscosity,"[2]; 298.15 K, x2 = 0.4097",1.91 ± 0.04 mPa·s
same,viscosity,"[2]; 298.15 K, x2 = 0.4479",1.88 ± 0.04 mPa·s
same,viscosity,"[2]; 298.15 K, x2 = 0.493",1.83 ± 0.04 mPa·s
same,viscosity,"[2]; 298.15 K, x2 = 0.5478",1.76 ± 0.04 mPa·s
same,viscosity,"[2]; 298.15 K, x2 = 0.5961",1.67 ± 0.04 mPa·s
same,viscosity,"[2]; 298.15 K, x2 = 0.659",1.52 ± 0.03 mPa·s
same,viscosity,"[2]; 298.15 K, x2 = 0.7014",1.4 ± 0.03 mPa·s
same,viscosity,"[2]; 298.15 K, x2 = 0.798",1.11 ± 0.02 mPa·s
same,viscosity,"[2]; 298.15 K, x2 = 0.8992",0.78 ± 0.02 mPa·s
same,viscosity,"[2]; 298.15 K, x2 = 0.9503",0.67 ± 0.02 mPa·s
same,mass density,"[2]; 298.15 K, x2 = 0",862.315 ± 2.1 kg/m3
same,mass density,"[2]; 298.15 K, x2 = 0.0666",863.427 ± 2.1 kg/m3
same,mass density,"[2]; 298.15 K, x2 = 0.1108",863.705 ± 2.1 kg/m3
same,mass density,"[2]; 298.15 K, x2 = 0.2089",864.848 ± 2.1 kg/m3
same,mass density,"[2]; 298.15 K, x2 = 0.3043",864.932 ± 2.1 kg/m3
same,mass density,"[2]; 298.15 K, x2 = 0.4097",864.276 ± 2.1 kg/m3
same,mass density,"[2]; 298.15 K, x2 = 0.4479",863.674 ± 2.1 kg/m3
same,mass density,"[2]; 298.15 K, x2 = 0.493",862.605 ± 2.1 kg/m3
same,mass density,"[2]; 298.15 K, x2 = 0.5478",860.518 ± 2.1 kg/m3
same,mass density,"[2]; 298.15 K, x2 = 0.5961",858.069 ± 2.1 kg/m3
same,mass density,"[2]; 298.15 K, x2 = 0.659",853.437 ± 2.1 kg/m3
same,mass density,"[2]; 298.15 K, x2 = 0.7014",849.321 ± 2.1 kg/m3
same,mass density,"[2]; 298.15 K, x2 = 0.798",836.513 ± 2 kg/m3
same,mass density,"[2]; 298.15 K, x2 = 0.8992",816.251 ± 2 kg/m3
same,mass density,"[2]; 298.15 K, x2 = 0.9503",802.691 ± 2 kg/m3
same,viscosity,"[2]; 303.15 K, x2 = 0",1.697 ± 0.036 mPa·s
same,viscosity,"[2]; 303.15 K, x2 = 0.0666",1.71 ± 0.04 mPa·s
same,viscosity,"[2]; 303.15 K, x2 = 0.1108",1.71 ± 0.04 mPa·s
same,viscosity,"[2]; 303.15 K, x2 = 0.2089",1.72 ± 0.04 mPa·s
same,viscosity,"[2]; 303.15 K, x2 = 0.3043",1.72 ± 0.04 mPa·s
same,viscosity,"[2]; 303.15 K, x2 = 0.4097",1.69 ± 0.04 mPa·s
same,viscosity,"[2]; 303.15 K, x2 = 0.4479",1.66 ± 0.04 mPa·s
same,viscosity,"[2]; 303.15 K, x2 = 0.4931",1.62 ± 0.03 mPa·s
same,viscosity,"[2]; 303.15 K, x2 = 0.5478",1.56 ± 0.03 mPa·s
same,viscosity,"[2]; 303.15 K, x2 = 0.5966",1.48 ± 0.03 mPa·s
same,viscosity,"[2]; 303.15 K, x2 = 0.659",1.35 ± 0.03 mPa·s
same,viscosity,"[2]; 303.15 K, x2 = 0.7014",1.26 ± 0.03 mPa·s
same,viscosity,"[2]; 303.15 K, x2 = 0.798",1.04 ± 0.02 mPa·s
same,viscosity,"[2]; 303.15 K, x2 = 0.8992",0.75 ± 0.02 mPa·s
same,viscosity,"[2]; 303.15 K, x2 = 0.9503",0.62 ± 0.01 mPa·s
same,mass density,"[2]; 303.15 K, x2 = 0",857.774 ± 2.1 kg/m3
same,mass density,"[2]; 303.15 K, x2 = 0.0666",858.919 ± 2.1 kg/m3
same,mass density,"[2]; 303.15 K, x2 = 0.1108",859.196 ± 2.1 kg/m3
same,mass density,"[2]; 303.15 K, x2 = 0.2089",860.385 ± 2.1 kg/m3
same,mass density,"[2]; 303.15 K, x2 = 0.3043",860.42 ± 2.1 kg/m3
same,mass density,"[2]; 303.15 K, x2 = 0.4097",859.728 ± 2.1 kg/m3
same,mass density,"[2]; 303.15 K, x2 = 0.4479",859.094 ± 2.1 kg/m3
same,mass density,"[2]; 303.15 K, x2 = 0.4931",858.005 ± 2.1 kg/m3
same,mass density,"[2]; 303.15 K, x2 = 0.5478",855.9 ± 2.1 kg/m3
same,mass density,"[2]; 303.15 K, x2 = 0.5966",853.451 ± 2.1 kg/m3
same,mass density,"[2]; 303.15 K, x2 = 0.659",848.818 ± 2 kg/m3
same,mass density,"[2]; 303.15 K, x2 = 0.7014",844.723 ± 2 kg/m3
same,mass density,"[2]; 303.15 K, x2 = 0.798",831.905 ± 2 kg/m3
same,mass density,"[2]; 303.15 K, x2 = 0.8992",811.617 ± 2 kg/m3
same,mass density,"[2]; 303.15 K, x2 = 0.9503",798.008 ± 2 kg/m3
